Experimental data taken from patent US9765056B2, “Indole and pyrrole compounds, a process for their preparation and pharmaceutical compositions containing them” (LES LABORATOIRES SERVIER, priority 2013, dated 2017).
Where a name gives a salt, the structure may show the parent alone.

Tests used:
[1] = system: RS4;11 leukaemia tumour line; test: In vitro cytotoxicity, Microculture Tetrazolium Assay (MTT); assay type: cell-based; settings: Homo sapiens; RS4;11 cells, 48 hours exposure
Procedure: The cytotoxicity studies were carried out on the RS4;11 leukaemia tumour line.
The cells are distributed onto microplates and exposed to the test compounds for 48 hours. The cell viability is then quantified by a colorimetric assay, the Microculture Tetrazolium Assay (Cancer Res., 1987, 47, 939-942).

[2] = biological target: Bcl-2 protein (histag-Bcl-2, UniProtKB P10415) (Homo sapiens (Human), UniProt P10415); test: Inhibition of Bcl-2 by the fluorescence polarisation technique; assay type: binding; settings: fluorescence polarisation test; method A, or method B where underlined (underlining not visible); read-out: IC50 (nM) Bcl-2 FP
Excerpt: Inhibition of Bcl-2 by the fluorescence polarisation technique

Bcl-2 protein, sequence (P10415 whole entry): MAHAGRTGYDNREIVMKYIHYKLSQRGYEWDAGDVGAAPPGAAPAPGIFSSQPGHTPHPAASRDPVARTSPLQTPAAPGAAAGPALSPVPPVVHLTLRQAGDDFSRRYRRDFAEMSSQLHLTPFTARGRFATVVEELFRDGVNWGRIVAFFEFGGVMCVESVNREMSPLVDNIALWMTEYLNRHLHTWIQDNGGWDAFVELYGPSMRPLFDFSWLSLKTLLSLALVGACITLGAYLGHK

## CC(C)c1ccc(N(C(=O)c2cn(-c3cc4c(cc3C(=O)N3Cc5ccccc5C[C@H]3CN3CCN(C)CC3)OCO4)c3ccccc23)c2ccc(O)c(Cl)c2)cc1 [Example 64, N-(3-Chloro-4-hydroxyphenyl)-1-(6-{[(3S)-3-[(4-methylpiperazin-1-yl)methyl]-3,4-dihydroisoquinolin-2(1H)-yl]carbonyl}-1,3-benzodioxol-5-yl)-N-[4-(propan-2-yl)phenyl]-1H-indole-3-carboxamide hydrochloride]
[1]
  IC50: 1360 nM
[2]
  IC50: 296 nM

## Cc1c(C(=O)N(c2ccc(O)cc2)c2cnc3c(ccn3C)c2)cn(-c2cc(Cl)ccc2C(=O)N2Cc3ccccc3C[C@H]2CN2CCOCC2)c1C [Example 209, 1-(5-Chloro-2-{[(3S)-3-(morpholin-4-ylmethyl)-3,4-dihydroisoquinolin-2(1H)-yl]carbonyl}phenyl)-N-(4-hydroxyphenyl)-4,5-dimethyl-N-(1-methyl-1H-pyrrolo[2,3-b]pyridin-5-yl)-1H-pyrrole-3-carboxamide hydrochloride]
[1]
  IC50: 62.9 nM
[2]
  IC50: 4.1 nM

## CCCCN(CCCC)C(=O)c1nn(-c2ccccc2C(=O)N2Cc3ccccc3C[C@H]2CN)c2ccccc12 [Example 121, 1-{2-[(3S)-3-(Aminomethyl)-1,2,3,4-tetrahydroisoquinoline-2-carbonyl]-phenyl}-N,N-dibutyl-1H-indazole-3-carboxamide]
[1]
  IC50: 8770 nM
[2]
  IC50: 448 nM

## Cc1cc(C(=O)N(c2ccc(O)cc2)c2ccc(Cl)cc2)cn1-c1cc(Br)ccc1C(=O)N1Cc2ccccc2C[C@H]1CN1CCN(C)CC1 [Example 62, 1-(5-Bromo-2-{[(3S)-3-[(4-methylpiperazin-1-yl)methyl]-3,4-dihydroisoquinolin-2(1H)-yl]carbonyl}phenyl)-N-(4-chlorophenyl)-N-(4-hydroxyphenyl)-5-methyl-1H-pyrrole-3-carboxamide]
[1]
  IC50: 205 nM
[2]
  IC50: 7.5 nM

## CCCCN(C(=O)c1cn(-c2cc(OC)c(O)cc2C(=O)N2Cc3ccccc3C[C@H]2CN2CCN(C)CC2)c2ccccc12)c1ccc(O)cc1 [Example 203, N-Butyl-1-{4-hydroxy-5-methoxy-2-[(3S)-3-[(4-methylpiperazin-1-yl)methyl]-1,2,3,4-tetrahydroisoquinoline-2-carbonyl]phenyl}-N-(4-hydroxyphenyl)-1H-indole-3-carboxamide dihydrochloride]
[1]
  IC50: 454 nM
[2]
  IC50: 10 nM

## COc1ccc(C(=O)N2Cc3ccccc3C[C@H]2CN2CCN(C)CC2)c(-n2cc(C(=O)N(c3ccccc3)c3ccc(O)cc3)c3ccccc32)c1 [Example 168, N-(4-Hydroxyphenyl)-1-{5-methoxy-2-[(3S)-3-[(4-methylpiperazin-1-yl)methyl]-1,2,3,4-tetrahydroisoquinoline-2-carbonyl]phenyl}-N-phenyl-1H-indole-3-carboxamide dihydrochloride]
[1]
  IC50: 188 nM
[2]
  IC50: 11.4 nM

## NC[C@@H]1Cc2ccccc2CN1C(=O)c1cc(NC(=O)CSc2ccccc2)ccc1-n1cc(C(=O)N(c2ccccc2)c2ccc(O)cc2)c2ccccc21 [Example 157, 1-{2-[(3S)-3-(Aminomethyl)-1,2,3,4-tetrahydroisoquinoline-2-carbonyl]-4-[2-(phenylsulphanyl)acetamido]phenyl}-N-(4-hydroxyphenyl)-N-phenyl-1H-indole-3-carboxamide]
[1]
  IC50: 487 nM
[2]
  IC50: 16.1 nM

## COc1ccc(C(=O)N2Cc3ccccc3C[C@H]2CN)c(-n2cc(C(=O)N(c3ccccc3)c3ccccc3)c3ccccc32)c1 [Example 147, 1-{2-[(3S)-3-(Aminomethyl)-1,2,3,4-tetrahydroisoquinoline-2-carbonyl]-5-methoxyphenyl}-N,N-diphenyl-1H-indole-3-carboxamide]
[1]
  IC50: 966 nM
[2]
  IC50: 22.5 nM

## Cc1cc(C(=O)N(c2ccc(O)cc2)c2ccc3[nH]ccc3c2)cn1-c1cc2c(cc1C(=O)N1Cc3ccccc3C[C@H]1CN1CCN(C)CC1)OCO2 [Example 87, N-(4-Hydroxyphenyl)-N-(1H-indol-5-yl)-5-methyl-1-(6-{[(3S)-3-[(4-methylpiperazin-1-yl)methyl]-3,4-dihydroisoquinolin-2(1H)-yl]carbonyl}-1,3-benzodioxol-5-yl)-1H-pyrrole-3-carboxamide]
[1]
  IC50: 138 nM
[2]
  IC50: 4.4 nM

## COc1cc(-n2cc(C(=O)N(c3ccccc3)c3ccc(C)cc3)c3ccccc32)c(C(=O)N2Cc3ccccc3C[C@H]2CN2CCN(C)CC2)cc1O [Example 193, 1-{4-Hydroxy-5-methoxy-2-[(3S)-3-[(4-methylpiperazin-1-yl)methyl]-1,2,3,4-tetrahydroisoquinoline-2-carbonyl]phenyl}-N-(4-methylphenyl)-N-phenyl-1H-indole-3-carboxamide]
[1]
  IC50: 499 nM
[2]
  IC50: 5.6 nM

## COc1cc(-n2cc(C(=O)N(c3ccccc3)C3CCCCC3)c3ccccc32)c(C(=O)N2Cc3ccccc3C[C@H]2CN2CCN(C)CC2)cc1O [Example 187, N-Cyclohexyl-1-{4-hydroxy-5-methoxy-2-[(3S)-3-[(4-methylpiperazin-1-yl)methyl]-1,2,3,4-tetrahydroisoquinoline-2-carbonyl}phenyl]-N-phenyl-1H-indole-3-carboxamide dihydrochloride]
[1]
  IC50: 1990 nM
[2]
  IC50: 21.6 nM

## NC[C@@H]1Cc2ccccc2CN1C(=O)c1ccccc1-n1cc(C(=O)N(c2ccccc2)c2ccc(O)cc2)c2ccccc21 [Example 131, 1-{2-[(3S)-3-(Aminomethyl)-1,2,3,4-tetrahydroisoquinoline-2-carbonyl}phenyl]-N-(4-hydroxyphenyl)-N-phenyl-1H-indole-3-carboxamide]
[1]
  IC50: 469 nM
[2]
  IC50: 18.9 nM

## CN1CCN(C[C@@H]2Cc3ccccc3CN2C(=O)c2ccc(Br)cc2-n2cc(C(=O)N(c3ccc(O)cc3)c3ccc(O)cc3)c3ccccc32)CC1 [Example 54, 1-(5-Bromo-2-{[(3S)-3-[(4-methylpiperazin-1-yl)methyl]-3,4-dihydroisoquinolin-2(1H)-yl]carbonyl}phenyl)-N,N-bis(4-hydroxyphenyl)-1H-indole-3-carboxamide]
[1]
  IC50: 103 nM
[2]
  IC50: 20 nM

## COc1cc(-n2cc(C(=O)N(c3ccc(O)cc3)c3ccc4[nH]ccc4c3)c3ccccc32)c(C(=O)N2Cc3ccccc3C[C@H]2CN2CCN(C)CC2)cc1O [Example 202, 1-{4-Hydroxy-5-methoxy-2-[(3S)-3-[(4-methylpiperazin-1-yl)methyl]-1,2,3,4-tetrahydroisoquinoline-2-carbonyl]phenyl}-N-(4-hydroxyphenyl)-N-(1H-indol-5-yl)-1H-indole-3-carboxamide]
[1]
  IC50: 798 nM
[2]
  IC50: 4.4 nM

## NC[C@@H]1Cc2ccccc2CN1C(=O)c1ccccc1-n1nc(C(=O)N(c2ccccc2)c2ccccc2)c2ccccc21 [Example 122, 1-{2-[(3S)-3-(Aminomethyl)-1,2,3,4-tetrahydroisoquinoline-2-carbonyl]phenyl}-N,N-diphenyl-1H-indazole-3-carboxamide]
[1]
  IC50: 2290 nM
[2]
  IC50: 53.3 nM

## Cc1cc(C(=O)N(c2ccccc2)c2ccc(O)cc2)cn1-c1cc2c(cc1C(=O)N1Cc3ccccc3C[C@H]1CN1CCN(C)CC1)OCO2 [Example 24, N-(4-Hydroxyphenyl)-5-methyl-1-(6-{[(3S)-3-[(4-methylpiperazin-1-yl)methyl]-3,4-dihydroisoquinolin-2(1H)-yl]carbonyl}-1,3-benzodioxol-5-yl)-N-phenyl-1H-pyrrole-3-carboxamide]
[1]
  IC50: 140 nM
[2]
  IC50: 15.6 nM
